Assay results: US11427574B2, “Compounds for treating Rac-GTPase mediated disorder” (Children's Medical Center Corporation, priority 2015, dated 2022)

What was measured:
EPHB1 = EPHB1 (Homo sapiens, UniProt P54762); assay: Kinase screening; assay type: biochemical
Description: (§1) Compound 1 was tested for its efficacy in inhibiting activities of 40 kinases and binding with 12 GPCRs both as an antagonist and an agonist.

JAK3 = JAK3 (Homo sapiens, UniProt P52333); assay: Kinase screening; assay type: biochemical
Description: as §1

ROCK2 = ROCK2 (Homo sapiens, UniProt O75116); assay: Kinase screening; assay type: biochemical
ROCK2, sequence (O75116 whole entry, species assumed): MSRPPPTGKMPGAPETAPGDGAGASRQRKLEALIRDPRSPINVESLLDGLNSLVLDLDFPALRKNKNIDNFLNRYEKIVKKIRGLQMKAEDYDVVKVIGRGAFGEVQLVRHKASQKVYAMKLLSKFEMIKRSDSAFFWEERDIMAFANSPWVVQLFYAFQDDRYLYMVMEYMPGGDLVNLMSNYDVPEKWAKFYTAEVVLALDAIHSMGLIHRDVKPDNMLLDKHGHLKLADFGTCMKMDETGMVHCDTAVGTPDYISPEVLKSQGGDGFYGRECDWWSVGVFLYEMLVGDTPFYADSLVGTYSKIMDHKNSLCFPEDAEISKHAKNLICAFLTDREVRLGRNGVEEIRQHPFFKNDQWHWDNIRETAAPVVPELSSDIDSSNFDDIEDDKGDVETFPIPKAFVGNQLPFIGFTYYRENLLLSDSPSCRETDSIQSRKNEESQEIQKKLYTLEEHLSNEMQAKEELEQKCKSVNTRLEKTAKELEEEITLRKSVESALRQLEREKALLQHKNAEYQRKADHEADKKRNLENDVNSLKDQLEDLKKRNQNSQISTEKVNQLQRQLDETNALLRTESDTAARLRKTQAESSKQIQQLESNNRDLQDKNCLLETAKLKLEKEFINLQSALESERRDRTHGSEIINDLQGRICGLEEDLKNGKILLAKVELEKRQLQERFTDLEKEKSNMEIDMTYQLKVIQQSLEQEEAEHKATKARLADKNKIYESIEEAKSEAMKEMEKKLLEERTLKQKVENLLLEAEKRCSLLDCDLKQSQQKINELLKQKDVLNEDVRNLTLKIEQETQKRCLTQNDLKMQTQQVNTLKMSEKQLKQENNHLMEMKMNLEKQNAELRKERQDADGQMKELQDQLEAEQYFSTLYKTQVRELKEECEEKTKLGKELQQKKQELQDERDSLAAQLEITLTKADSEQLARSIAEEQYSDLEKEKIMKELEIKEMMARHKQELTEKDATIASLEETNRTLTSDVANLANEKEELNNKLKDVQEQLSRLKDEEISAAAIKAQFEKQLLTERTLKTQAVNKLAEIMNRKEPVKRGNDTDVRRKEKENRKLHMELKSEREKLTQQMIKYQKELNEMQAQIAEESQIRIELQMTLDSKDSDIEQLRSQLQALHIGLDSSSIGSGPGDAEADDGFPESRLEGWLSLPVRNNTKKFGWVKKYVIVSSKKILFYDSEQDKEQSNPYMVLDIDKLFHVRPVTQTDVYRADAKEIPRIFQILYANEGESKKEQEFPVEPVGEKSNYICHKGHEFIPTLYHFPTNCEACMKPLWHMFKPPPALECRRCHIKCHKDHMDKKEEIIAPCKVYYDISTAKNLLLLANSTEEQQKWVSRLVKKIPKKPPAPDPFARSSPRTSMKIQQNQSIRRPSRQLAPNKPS
Description: as §1

PIK3C2A (PI3K-C2 alpha) = PIK3C2A (PI3K-C2 alpha) (Homo sapiens, UniProt O00443); assay: Kinase screening; assay type: biochemical
PIK3C2A (PI3K-C2 alpha), sequence (O00443 whole entry, species assumed): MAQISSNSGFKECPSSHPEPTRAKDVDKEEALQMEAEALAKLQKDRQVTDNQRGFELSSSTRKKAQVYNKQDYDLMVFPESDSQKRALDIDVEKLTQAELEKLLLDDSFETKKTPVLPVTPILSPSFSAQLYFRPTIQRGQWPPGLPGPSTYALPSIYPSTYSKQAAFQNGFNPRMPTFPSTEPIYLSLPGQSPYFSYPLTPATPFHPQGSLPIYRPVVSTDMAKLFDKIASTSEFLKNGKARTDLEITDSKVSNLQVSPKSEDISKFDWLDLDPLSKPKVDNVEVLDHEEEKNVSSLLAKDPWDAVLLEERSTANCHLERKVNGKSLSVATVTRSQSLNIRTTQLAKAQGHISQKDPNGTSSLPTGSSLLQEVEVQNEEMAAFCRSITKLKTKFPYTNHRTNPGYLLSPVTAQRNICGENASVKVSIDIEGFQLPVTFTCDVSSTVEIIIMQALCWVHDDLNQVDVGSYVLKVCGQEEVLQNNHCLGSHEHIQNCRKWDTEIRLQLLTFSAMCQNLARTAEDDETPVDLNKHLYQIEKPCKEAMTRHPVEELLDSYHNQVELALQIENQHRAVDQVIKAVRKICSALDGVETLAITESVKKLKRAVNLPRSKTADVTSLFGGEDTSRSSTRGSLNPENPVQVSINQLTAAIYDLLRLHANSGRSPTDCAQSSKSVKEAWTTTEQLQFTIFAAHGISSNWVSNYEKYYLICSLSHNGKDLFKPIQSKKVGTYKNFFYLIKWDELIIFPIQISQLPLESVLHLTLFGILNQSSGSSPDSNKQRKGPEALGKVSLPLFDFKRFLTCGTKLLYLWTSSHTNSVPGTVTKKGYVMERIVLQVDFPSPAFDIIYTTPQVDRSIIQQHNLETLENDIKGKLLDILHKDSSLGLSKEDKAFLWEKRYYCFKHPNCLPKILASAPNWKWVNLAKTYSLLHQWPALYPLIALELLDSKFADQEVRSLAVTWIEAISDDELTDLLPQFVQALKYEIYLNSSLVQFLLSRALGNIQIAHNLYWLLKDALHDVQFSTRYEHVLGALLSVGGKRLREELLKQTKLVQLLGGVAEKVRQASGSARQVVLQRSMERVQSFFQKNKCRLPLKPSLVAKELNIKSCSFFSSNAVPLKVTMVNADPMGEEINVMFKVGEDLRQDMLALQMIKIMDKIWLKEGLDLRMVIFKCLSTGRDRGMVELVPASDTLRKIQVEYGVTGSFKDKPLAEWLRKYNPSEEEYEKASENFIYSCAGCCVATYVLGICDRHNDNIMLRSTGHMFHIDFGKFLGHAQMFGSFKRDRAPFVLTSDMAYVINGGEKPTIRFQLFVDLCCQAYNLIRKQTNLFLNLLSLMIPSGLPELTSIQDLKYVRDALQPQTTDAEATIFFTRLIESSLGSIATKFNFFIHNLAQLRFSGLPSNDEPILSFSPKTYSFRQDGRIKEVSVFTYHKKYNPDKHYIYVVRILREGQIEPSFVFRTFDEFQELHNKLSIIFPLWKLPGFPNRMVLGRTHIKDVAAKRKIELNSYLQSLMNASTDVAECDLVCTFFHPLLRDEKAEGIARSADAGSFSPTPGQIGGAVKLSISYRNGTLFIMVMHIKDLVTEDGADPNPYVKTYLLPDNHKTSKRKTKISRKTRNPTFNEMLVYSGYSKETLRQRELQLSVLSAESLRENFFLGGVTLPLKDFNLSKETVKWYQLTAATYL
Description: as §1

CDK1/cyclin B = CDK1/cyclin B (Homo sapiens, UniProt P06493); assay: Kinase screening; assay type: biochemical
Description: as §1

[1] = target: PIK3CD/PIK3R1 (p110 delta/p85 alpha) (Homo sapiens, UniProt O00329); assay: Kinase screening; assay type: biochemical
Description: as §1

[2] = target: PIK3CA/PIK3R1 (p110 alpha/p85 alpha) (Homo sapiens, UniProt P42336); assay: Kinase screening; assay type: biochemical
Description: as §1

MAPK8 (JNK1) = MAPK8 (JNK1) (Homo sapiens, UniProt P45983); assay: Kinase screening; assay type: biochemical
Description: as §1

MAPK3 (ERK1) = MAPK3 (ERK1) (Homo sapiens, UniProt P27361); assay: Kinase screening; assay type: biochemical
Description: as §1

JAK2 = JAK2 (Homo sapiens, UniProt O60674); assay: Kinase screening; assay type: biochemical
Description: as §1

ABL1 = ABL1 (Homo sapiens, UniProt P00519); assay: Kinase screening; assay type: biochemical
Description: as §1

SYK = SYK (Homo sapiens, UniProt P43405); assay: Kinase screening; assay type: biochemical
Description: as §1

PAK1 = PAK1 (Homo sapiens, UniProt Q13153); assay: Kinase screening; assay type: biochemical
Description: as §1

PAK2 (PAK65) = PAK2 (PAK65) (Homo sapiens, UniProt Q13177); assay: Kinase screening; assay type: biochemical
Description: as §1

PAK6 = PAK6 (Homo sapiens, UniProt Q9NQU5); assay: Kinase screening; assay type: biochemical
Description: as §1

CDK5/p25 = CDK5/p25 (Homo sapiens, UniProt Q00535); assay: Kinase screening; assay type: biochemical
Description: as §1

KIT = KIT (Homo sapiens, UniProt P10721); assay: Kinase screening; assay type: biochemical
Description: as §1

IGF1R = IGF1R (Homo sapiens, UniProt P08069); assay: Kinase screening; assay type: biochemical
Description: as §1

LIMK2 = LIMK2 (Homo sapiens, UniProt P53671); assay: Kinase screening; assay type: biochemical
Description: as §1

PIK3C2B (PI3K-C2 beta) = PIK3C2B (PI3K-C2 beta) (Homo sapiens, UniProt O00750); assay: Kinase screening; assay type: biochemical
Description: as §1

MAPK9 (JNK2) = MAPK9 (JNK2) (Homo sapiens, UniProt P45984); assay: Kinase screening; assay type: biochemical
Description: as §1

PDGFRA (PDGFR alpha) = PDGFRA (PDGFR alpha) (Homo sapiens, UniProt P16234); assay: Kinase screening; assay type: biochemical
PDGFRA (PDGFR alpha), sequence (P16234 24-1089, species assumed): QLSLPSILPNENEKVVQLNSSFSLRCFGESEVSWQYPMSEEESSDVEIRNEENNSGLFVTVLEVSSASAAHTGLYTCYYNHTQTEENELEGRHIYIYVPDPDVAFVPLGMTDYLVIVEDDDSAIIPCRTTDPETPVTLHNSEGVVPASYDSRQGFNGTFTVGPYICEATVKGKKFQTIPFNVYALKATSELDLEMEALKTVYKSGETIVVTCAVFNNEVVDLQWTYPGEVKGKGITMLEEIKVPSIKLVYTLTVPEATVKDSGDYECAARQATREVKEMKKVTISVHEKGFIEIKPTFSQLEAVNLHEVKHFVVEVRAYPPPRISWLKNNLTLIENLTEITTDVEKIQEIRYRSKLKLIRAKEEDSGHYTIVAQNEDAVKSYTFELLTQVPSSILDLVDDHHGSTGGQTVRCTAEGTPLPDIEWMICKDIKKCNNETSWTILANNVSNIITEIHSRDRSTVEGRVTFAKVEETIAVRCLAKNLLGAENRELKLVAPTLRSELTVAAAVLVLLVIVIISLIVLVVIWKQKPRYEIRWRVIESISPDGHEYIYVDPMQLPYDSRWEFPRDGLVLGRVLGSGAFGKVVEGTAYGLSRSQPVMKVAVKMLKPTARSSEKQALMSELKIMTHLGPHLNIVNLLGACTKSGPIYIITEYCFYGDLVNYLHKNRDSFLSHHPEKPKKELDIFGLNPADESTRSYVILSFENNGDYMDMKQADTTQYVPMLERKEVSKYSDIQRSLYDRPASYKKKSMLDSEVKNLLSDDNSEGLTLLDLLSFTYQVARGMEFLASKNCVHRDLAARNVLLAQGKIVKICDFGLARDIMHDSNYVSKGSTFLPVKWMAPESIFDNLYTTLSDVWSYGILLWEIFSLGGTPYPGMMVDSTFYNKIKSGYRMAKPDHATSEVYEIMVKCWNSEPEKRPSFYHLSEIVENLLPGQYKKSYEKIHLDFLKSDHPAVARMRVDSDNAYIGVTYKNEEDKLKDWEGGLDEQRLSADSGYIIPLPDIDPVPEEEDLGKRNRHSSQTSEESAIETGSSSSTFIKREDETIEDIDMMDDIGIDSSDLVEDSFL
Description: as §1

CDC42 BPB (MRCKB) = CDC42 BPB (MRCKB) (Homo sapiens, UniProt Q9Y5S2); assay: Kinase screening; assay type: biochemical
Description: as §1

P12-Ichikawa cells = assay: Proliferation assay in P12 leukemia cells; assay type: cell-based; settings: Homo sapiens, read-out: IC50, inhibition of proliferation
Description: Dose Dependent Inhibition of Proliferation The 100 compounds selected from the initial in silico screen were assayed for inhibition of proliferation in two leukemia cell lines, SEM and P12 by Cell Titer Glo. The cells for the proliferation assay were spun down and re-suspended. The cell suspension was then divided and the compound to be tested added in desired concentrations and subsequently plated. Following an incubation period, the Cell Titer Glo reagent (Promega CellTiter 96® Aqueous Non-Radioactive Cell Proliferation Assay) was added and allowed to incubate. The absorbance is subsequently measured at 490 nm using a plate reader. Each compound was analyzed for its effects on cell proliferation.
The lead compound, i.e. Compound 1, was analyzed for its effect on cell proliferation at various doses on three different leukemia cell lines: SEM, P12, and Loucy. In order to quantitate the percentage inhibition of cell proliferation, Cell Titer Glo analysis was completed as described in Example 2 above.
FIGS. 3a-3c show three graphs illustrating the dose dependent inhibition of proliferation of Compound 1 in SEM, P12, and Loucy cells as measured by MTS assay. […] Compound 1 was further analyzed for its effect on cell apoptosis and cell death using a flow based assay using Annexin V staining.

40 kinases = assay: Kinase screening, whole panel; assay type: biochemical; settings: summary of Table 1
Description: as §1

SEM leukemic cell line = assay: In vivo SEM leukemia model in NSG mice; settings: 250 mg/Kg twice a day for 21 days
Description: Compound 1 was assayed for its pharmacokinetics and anti-leukemia activities in mice. Specifically, a SEM leukemic cell line was labeled with a vector encoding the mCherry tag and Luciferase. 500,000 labeled cells were injected into immunodeficient mice (NSG mice). After establishment of leukemia (as assessed by bioluminescent imaging), mice were treated with Compound 1 at a dose 250 mg/Kg or a vehicle for 21 days twice a day. During treatment, mice were imaged every other day and BLI recorded and analyzed. 2 hours after the last dose, animals were sacrificed and organs harvested for PK and PD analysis.
FIGS. 8b and 8c show the bioluminescence data obtained from the mice treated with Compound 1 and a vehicle when the mice were imaged in a supine position and a prone position, respectively.

Tiam1-Rac complex = Tiam1-Rac complex (Homo sapiens, UniProt P63000); assay: Homologous time resolved fluorescence (HTRF) binding assay
Description: Compound 1 was tested for its efficacy in binding with Rac1 in two independent binding assays, i.e., 2D NMR spectroscopy and Homologous time resolved fluorescence assay (HTRF).
In the 2D NMR assay, samples containing 50 μM Rac1 and 250 μM or 400 μM Compound 1 were used.
Compound 2 was tested for its efficacy in binding with Rac1 in two independent binding assays, i.e., 2D NMR spectroscopy and Homologous time resolved fluorescence assay (HTRF).
In the 2D NMR assay, a sample containing 50 μM Rac1 and 250 μM Compound 2 was used.

EPHB1, sequence (P54762 18-984, species assumed): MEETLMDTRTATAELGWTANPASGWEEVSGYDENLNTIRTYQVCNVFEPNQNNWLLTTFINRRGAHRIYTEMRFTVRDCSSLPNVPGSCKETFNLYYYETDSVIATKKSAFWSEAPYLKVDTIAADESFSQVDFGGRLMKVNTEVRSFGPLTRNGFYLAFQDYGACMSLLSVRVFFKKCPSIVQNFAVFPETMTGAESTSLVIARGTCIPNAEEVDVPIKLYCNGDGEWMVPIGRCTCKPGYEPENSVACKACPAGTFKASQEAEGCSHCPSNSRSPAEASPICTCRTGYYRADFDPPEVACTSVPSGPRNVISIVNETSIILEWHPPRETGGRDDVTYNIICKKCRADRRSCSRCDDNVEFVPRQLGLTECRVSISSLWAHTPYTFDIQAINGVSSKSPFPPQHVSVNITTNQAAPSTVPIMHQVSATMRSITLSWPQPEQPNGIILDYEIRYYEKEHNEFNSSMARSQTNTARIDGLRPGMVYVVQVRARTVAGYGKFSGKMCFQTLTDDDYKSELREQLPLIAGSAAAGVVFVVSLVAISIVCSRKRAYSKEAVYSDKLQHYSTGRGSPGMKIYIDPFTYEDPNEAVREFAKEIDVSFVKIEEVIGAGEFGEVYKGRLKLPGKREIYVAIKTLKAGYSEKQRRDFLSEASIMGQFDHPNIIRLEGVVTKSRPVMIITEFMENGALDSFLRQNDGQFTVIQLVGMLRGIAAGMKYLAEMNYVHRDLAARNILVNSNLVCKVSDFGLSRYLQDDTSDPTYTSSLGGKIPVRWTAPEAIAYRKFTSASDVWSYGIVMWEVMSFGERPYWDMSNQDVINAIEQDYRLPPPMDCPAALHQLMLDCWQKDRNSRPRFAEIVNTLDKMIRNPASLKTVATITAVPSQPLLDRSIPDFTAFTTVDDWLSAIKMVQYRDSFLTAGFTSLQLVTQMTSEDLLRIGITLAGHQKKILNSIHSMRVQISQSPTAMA

- inhibition percentage (EPHB1): 7.1 percentage
- inhibition percentage (JAK3): −16.3 percentage
- inhibition percentage (ROCK2): −2.0 percentage
- inhibition percentage (PIK3C2A (PI3K-C2 alpha)): −1.3 percentage
- inhibition percentage (CDK1/cyclin B): −2.3 percentage
- inhibition percentage [1]: 9.0 percentage
- inhibition percentage [2]: 11.0 percentage
- inhibition percentage (MAPK8 (JNK1)): 0.4 percentage
- inhibition percentage (MAPK3 (ERK1)): 6.7 percentage
- inhibition percentage (JAK2): −11.6 percentage
- inhibition percentage (ABL1): 0.6 percentage
- inhibition percentage (SYK): 7.0 percentage
- inhibition percentage (PAK1): 22.7 percentage
- inhibition percentage (PAK2 (PAK65)): −8.5 percentage
- inhibition percentage (PAK6): −0.6 percentage
- inhibition percentage (CDK5/p25): 1.0 percentage
- inhibition percentage (KIT): −4.2 percentage
- inhibition percentage (IGF1R): −7.4 percentage
- inhibition percentage (LIMK2): 0.4 percentage
- inhibition percentage (PIK3C2B (PI3K-C2 beta)): −10.9 percentage
- inhibition percentage (MAPK9 (JNK2)): 10.9 percentage
- inhibition percentage (PDGFRA (PDGFR alpha)): 15.1 percentage
- inhibition percentage (CDC42 BPB (MRCKB)): 3.3 percentage
- IC50 (P12-Ichikawa cells): 39.2 µM
- inhibition of the 40 kinases tested (40 kinases): no significant inhibition
- relative weight of the mice (SEM leukemic cell line; vs vehicle group): nearly identical
- binding in the HTRF assay (Tiam1-Rac complex): no binding was observed
Structure (SMILES): CCc1ccc(CN(C)C(=O)CCc2nnc(CCc3c[nH]c4ccccc34)o2)nc1 (racemic) [Compound 1]
- bioluminescence in the mice (SEM leukemic cell line; imaged in supine or prone position, vs vehicle): significantly reduced
